Assay results published in the Kinase Knowledgebase extract (Sharma et al. 2016).

Key:
PIK3CG (human) = PIK3CG (human) (UniProt P48736)
MAPK14 (human) = MAPK14 (human) (UniProt Q16539); details: concentration not given here
CDK2 (human) = CDK2 (human) (UniProt P24941); details: for inhibition: concentration not given here
EGFR (human) = EGFR (human) (UniProt P00533)
PIK3CA (human) = PIK3CA (human) (UniProt P42336)
PIK3CD (Human) = PIK3CD (Human) (UniProt O00329)
PIK3CB (Human) = PIK3CB (Human) (UniProt P42338)
PIK3CB (Human), sequence (P42338 whole entry, looked up): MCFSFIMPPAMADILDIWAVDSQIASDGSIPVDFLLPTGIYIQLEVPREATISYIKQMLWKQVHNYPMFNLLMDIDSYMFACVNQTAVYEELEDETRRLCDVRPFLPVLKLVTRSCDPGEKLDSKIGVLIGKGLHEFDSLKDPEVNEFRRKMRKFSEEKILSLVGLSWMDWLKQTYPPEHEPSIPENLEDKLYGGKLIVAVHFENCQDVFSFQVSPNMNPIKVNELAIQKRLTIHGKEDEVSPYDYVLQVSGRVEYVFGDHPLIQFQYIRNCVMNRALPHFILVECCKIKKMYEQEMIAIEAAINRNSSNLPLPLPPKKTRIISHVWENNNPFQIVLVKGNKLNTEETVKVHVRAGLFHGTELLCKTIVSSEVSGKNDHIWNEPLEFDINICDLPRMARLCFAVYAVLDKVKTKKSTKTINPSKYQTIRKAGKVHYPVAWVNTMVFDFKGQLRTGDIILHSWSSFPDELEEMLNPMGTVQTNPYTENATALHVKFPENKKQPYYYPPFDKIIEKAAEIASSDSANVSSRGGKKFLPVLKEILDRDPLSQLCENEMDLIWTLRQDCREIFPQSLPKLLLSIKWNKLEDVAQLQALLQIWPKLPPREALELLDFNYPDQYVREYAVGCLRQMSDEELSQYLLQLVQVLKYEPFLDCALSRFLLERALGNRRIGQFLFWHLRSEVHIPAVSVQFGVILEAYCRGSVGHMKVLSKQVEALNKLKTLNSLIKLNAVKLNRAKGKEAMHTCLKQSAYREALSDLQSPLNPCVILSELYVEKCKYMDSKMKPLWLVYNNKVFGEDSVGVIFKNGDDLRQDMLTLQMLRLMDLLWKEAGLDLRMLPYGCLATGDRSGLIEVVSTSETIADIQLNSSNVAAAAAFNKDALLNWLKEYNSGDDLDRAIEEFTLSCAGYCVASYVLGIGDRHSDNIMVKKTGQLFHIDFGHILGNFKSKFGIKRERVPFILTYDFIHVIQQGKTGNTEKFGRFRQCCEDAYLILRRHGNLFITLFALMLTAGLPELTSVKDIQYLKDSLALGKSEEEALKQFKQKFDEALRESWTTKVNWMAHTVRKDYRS

MAPK14 (human), sequence (Q16539 whole entry, looked up): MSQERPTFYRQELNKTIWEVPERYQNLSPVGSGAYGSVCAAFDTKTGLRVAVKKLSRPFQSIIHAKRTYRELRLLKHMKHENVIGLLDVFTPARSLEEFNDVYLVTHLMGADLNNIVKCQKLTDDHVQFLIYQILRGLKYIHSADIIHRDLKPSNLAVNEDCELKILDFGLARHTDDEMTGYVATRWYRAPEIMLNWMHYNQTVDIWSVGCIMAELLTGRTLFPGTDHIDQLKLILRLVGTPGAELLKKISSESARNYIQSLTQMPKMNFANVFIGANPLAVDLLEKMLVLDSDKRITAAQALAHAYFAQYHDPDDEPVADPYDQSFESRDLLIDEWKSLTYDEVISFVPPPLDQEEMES
PIK3CG (human), sequence (P48736 whole entry, looked up): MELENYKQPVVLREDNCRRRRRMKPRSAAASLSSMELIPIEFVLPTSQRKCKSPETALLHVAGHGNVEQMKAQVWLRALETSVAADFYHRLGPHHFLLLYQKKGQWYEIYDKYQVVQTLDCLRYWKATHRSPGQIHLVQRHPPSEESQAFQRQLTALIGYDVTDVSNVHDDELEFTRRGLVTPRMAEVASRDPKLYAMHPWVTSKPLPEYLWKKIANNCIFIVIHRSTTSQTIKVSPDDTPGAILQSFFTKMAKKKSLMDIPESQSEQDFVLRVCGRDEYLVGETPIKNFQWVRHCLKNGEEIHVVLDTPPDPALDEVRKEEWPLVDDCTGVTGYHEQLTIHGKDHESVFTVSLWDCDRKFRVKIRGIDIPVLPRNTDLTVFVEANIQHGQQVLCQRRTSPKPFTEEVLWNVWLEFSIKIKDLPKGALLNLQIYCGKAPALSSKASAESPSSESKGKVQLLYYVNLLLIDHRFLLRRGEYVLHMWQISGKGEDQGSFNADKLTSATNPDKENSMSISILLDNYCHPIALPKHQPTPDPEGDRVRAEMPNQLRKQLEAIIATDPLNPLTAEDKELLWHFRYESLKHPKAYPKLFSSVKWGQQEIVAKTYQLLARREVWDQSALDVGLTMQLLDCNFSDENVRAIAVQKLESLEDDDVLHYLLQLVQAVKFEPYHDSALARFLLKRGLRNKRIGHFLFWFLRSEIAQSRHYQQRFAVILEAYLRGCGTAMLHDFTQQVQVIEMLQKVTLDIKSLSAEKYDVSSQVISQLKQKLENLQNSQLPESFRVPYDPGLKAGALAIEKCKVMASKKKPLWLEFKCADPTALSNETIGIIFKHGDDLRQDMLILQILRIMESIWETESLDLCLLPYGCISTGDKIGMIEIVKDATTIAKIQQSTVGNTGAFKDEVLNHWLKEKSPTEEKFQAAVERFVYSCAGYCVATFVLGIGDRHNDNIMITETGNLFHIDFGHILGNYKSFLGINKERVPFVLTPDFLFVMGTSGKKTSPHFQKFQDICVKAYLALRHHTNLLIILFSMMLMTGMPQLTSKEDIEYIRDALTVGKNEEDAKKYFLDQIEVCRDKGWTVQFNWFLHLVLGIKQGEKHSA
EGFR (human), sequence (P00533 whole entry, looked up): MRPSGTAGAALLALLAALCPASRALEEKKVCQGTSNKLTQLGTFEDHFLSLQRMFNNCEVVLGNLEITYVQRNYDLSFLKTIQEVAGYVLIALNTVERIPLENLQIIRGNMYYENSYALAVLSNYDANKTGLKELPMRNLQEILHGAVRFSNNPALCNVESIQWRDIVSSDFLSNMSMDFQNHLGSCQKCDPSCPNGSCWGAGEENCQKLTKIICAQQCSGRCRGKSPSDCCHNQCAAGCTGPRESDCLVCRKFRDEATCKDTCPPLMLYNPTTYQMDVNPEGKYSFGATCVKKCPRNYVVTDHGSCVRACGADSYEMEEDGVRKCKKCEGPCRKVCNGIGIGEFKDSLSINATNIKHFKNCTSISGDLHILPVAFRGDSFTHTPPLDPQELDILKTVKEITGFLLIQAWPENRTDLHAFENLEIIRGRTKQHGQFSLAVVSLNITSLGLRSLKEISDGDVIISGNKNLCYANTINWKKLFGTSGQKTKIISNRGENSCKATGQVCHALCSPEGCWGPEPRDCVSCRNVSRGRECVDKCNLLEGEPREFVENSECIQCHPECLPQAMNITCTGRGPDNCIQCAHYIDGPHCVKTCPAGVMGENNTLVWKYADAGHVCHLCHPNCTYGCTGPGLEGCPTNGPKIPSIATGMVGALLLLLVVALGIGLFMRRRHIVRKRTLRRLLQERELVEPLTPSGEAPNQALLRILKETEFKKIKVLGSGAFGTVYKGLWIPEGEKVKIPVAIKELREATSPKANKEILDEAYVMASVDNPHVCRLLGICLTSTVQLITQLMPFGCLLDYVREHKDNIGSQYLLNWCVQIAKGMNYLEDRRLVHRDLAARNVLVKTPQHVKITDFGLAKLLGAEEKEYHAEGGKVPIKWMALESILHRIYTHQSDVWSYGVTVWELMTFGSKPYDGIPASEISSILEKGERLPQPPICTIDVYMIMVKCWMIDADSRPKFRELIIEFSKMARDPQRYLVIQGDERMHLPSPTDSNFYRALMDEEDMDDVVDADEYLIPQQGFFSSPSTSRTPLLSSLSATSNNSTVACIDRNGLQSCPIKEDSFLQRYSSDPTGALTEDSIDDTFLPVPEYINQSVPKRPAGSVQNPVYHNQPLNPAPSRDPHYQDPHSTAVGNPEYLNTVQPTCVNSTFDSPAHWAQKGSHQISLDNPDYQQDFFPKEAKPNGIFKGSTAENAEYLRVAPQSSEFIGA
PIK3CD (Human), sequence (O00329 whole entry, looked up): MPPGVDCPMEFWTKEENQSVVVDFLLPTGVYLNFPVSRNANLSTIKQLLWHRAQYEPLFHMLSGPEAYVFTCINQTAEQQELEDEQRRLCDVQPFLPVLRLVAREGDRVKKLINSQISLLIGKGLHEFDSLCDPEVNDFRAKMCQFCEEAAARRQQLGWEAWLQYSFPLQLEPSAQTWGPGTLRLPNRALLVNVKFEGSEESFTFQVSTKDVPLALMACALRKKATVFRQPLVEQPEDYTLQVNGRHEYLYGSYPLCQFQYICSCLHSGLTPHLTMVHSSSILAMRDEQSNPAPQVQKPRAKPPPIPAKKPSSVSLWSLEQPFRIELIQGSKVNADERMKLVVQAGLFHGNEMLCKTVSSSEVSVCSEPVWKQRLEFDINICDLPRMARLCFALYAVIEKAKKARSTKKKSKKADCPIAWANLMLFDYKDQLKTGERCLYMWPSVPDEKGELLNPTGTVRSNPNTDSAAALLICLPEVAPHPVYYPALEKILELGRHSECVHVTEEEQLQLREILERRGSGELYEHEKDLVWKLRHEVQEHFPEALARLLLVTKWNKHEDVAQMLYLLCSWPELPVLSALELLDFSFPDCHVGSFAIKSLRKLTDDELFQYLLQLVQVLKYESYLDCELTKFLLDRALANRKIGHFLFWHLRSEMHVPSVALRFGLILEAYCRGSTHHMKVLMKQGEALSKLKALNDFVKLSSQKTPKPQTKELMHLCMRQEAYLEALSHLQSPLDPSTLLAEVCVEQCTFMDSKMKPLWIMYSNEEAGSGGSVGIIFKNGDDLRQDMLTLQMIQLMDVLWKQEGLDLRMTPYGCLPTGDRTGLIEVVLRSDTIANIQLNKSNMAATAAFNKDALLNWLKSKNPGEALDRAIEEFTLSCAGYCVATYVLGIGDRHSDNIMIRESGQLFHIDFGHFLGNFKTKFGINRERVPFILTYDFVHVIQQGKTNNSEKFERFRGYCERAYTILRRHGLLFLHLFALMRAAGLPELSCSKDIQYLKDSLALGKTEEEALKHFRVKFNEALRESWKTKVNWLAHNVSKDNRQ

| IC50 (PIK3CG (human)) | inhibition (MAPK14 (human)) | IC50 (CDK2 (human)) | inhibition (CDK2 (human)) | IC50 (EGFR (human)) | IC50 (PIK3CA (human)) | IC50 (PIK3CD (Human)) | IC50 (PIK3CB (Human)) | SMILES |
| --- | --- | --- | --- | --- | --- | --- | --- | --- |
| 76 nM | -0.3% | 1200 nM |  |  |  |  |  | Cc1ccc([N+](=O)[O-])cc1S(=O)(=O)N(C)N=Cc1cnc2ccc(Br)cn12 |
| < 1000 nM |  |  |  | < 1000 nM | 1000 to 50000 nM | < 1000 nM | 1000 to 50000 nM | CC(C)n1nc(-c2cccc(C(=O)NC3C=NCS3)c2)c2c(N)ncnc21 (stereo unspecified) |
| < 1000 nM |  |  |  | 1000 to 50000 nM | < 1000 nM | < 1000 nM | 1000 to 50000 nM | CC(C)n1nc(-c2ccc3onc(N)c3c2)c2c(N)ncnc21 |
|  | 1.5% |  | -0.9% | > 50000 nM |  |  |  | COc1ccc2c(c1OC)N=C(NC(=O)c1cccnc1)N1CCN=C21 |
| 1000 to 50000 nM |  |  |  | > 50000 nM | 1000 to 50000 nM | 1000 to 50000 nM | 1000 to 50000 nM | CC(C)n1cc(-c2cc3cc(C=O)ccc3s2)c2c(N)ncnc21 |
|  | -2.9% |  | 1.9% |  |  |  | 590 nM | CC(=O)Nc1nc(C)c(-c2ccc(Cl)c(S(=O)(=O)NCCO)c2)s1 |

Further lines, the molecule ahead of its results:

| SMILES | IC50 (PIK3CG (human)) | inhibition (MAPK14 (human)) | IC50 (CDK2 (human)) | inhibition (CDK2 (human)) | IC50 (EGFR (human)) | IC50 (PIK3CA (human)) | IC50 (PIK3CD (Human)) | IC50 (PIK3CB (Human)) |
| --- | --- | --- | --- | --- | --- | --- | --- | --- |
| COc1ccccc1-n1c(CSc2ncnc3[nH]cnc23)nc2cccc(Cl)c2c1=O |  | -8.5% |  | -5.6% |  |  |  |  |
| O=C(c1ccccc1)c1ccc(N2CCOCC2)cc1O |  | -2.8% |  | 0.3% |  |  |  |  |
| Cc1ccccc1-n1c(Cn2cnc3c(N)ncnc32)nc2cccc(C)c2c1=O |  | -4.1% |  | -2.4% |  |  |  |  |
| CC(C)n1nc(-c2ccc(I)cc2)c2c(N)ncnc21 | 1000 to 50000 nM |  |  |  | 1000 to 50000 nM | 1000 to 50000 nM | < 1000 nM | 1000 to 50000 nM |
| O=c1cc(-c2cccc3c2Sc2ccccc2S3)oc(N2CCOCC2)c1 | 9900 nM | -1.4% |  | 2.6% |  | 3300 nM | 720 nM | 1200 nM |
| Oc1cccc(-c2nc(N3CCOCC3)c3oc4ncccc4c3n2)c1 |  | 0.2% |  | 1.5% |  |  |  |  |
| Cc1cc(C(C)Nc2ccccc2)c2oc(-c3ccncc3)cc(=O)c2c1 (stereo unspecified) |  | -0.9% |  | -3.1% |  |  |  | 120 nM |
| Cc1ccccc1-n1c(Cn2ncc3c(N)ncnc32)nc2cccc(C)c2c1=O | 10000 nM |  |  |  |  | 100000 nM | 240 nM | 25000 nM |
| Cc1ccccc1Oc1cccc2c(=O)cc(N3CCOCC3)[nH]c12 | 100000 nM | -1.2% |  | -5.3% |  |  |  |  |
| O=C1NC(=S)S/C1=C/c1ccc2c(c1)N(Cc1ccc(F)c(Cl)c1)C(=O)CO2 |  | -2.6% |  | -4.9% |  |  |  | 1100 nM |
